Earlier results, collected in US6335036B1, “Granular pharmaceutical preparation of ebselen” (Daiichi Pharmaceutical Co., Ltd., priority 1996, dated 2002).

Conditions: known property, background art

Compound: O=c1c2ccccc2[se]n1-c1ccccc1 [Ebselen, 2-phenyl-1,2-benzisoselenazol-3(2H)-one]
- Solubility in water: slightly soluble in water
